The source of these data is patent publication US12110276B2 (Genentech, Inc., priority 2021, dated 2024).

The target of one experiment is TEAD4 (Homo sapiens (Human), UniProt Q15561). The experiment can be described thus: TR-FRET lipid pocket probe competition assay (Lipid HTRF), TEAD4.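 Also: His-tagged TEAD4 with biotinylated lipid-pocket probe, read by Europium anti-His and XL665 streptavidin, where probe displacement lowers the TR-FRET signal, IC50 from a four-parameter fit.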 Type of experiment: binding. To be noted: 4 hours pre-incubation; read-out: Lipid HTRF TEAD4 IC50. For orientation: Time-resolved FRET reads energy transfer from a long-lived donor to a nearby acceptor.
Chain of TEAD4 (Q15561 whole entry, species assumed): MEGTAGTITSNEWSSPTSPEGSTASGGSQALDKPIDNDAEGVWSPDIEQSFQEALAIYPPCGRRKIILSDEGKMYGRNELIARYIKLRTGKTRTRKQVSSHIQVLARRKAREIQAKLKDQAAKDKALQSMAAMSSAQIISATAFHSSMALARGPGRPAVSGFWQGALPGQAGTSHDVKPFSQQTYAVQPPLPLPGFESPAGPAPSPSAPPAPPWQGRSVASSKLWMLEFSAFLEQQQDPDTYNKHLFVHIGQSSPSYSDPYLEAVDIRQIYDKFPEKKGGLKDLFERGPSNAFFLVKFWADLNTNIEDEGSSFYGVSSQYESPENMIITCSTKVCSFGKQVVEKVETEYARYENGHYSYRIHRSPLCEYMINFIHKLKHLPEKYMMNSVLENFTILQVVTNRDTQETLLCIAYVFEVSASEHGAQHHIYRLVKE
The target in another experiment is TEAD3 (Homo sapiens (Human), UniProt Q99594). The experiment can be described thus: TR-FRET lipid pocket probe competition assay (Lipid HTRF), TEAD3. The conditions noted are these: 4 hours pre-incubation; read-out: Lipid HTRF TEAD3 IC50. In kind it is binding.
Chain of TEAD3 (Q99594 whole entry, species assumed): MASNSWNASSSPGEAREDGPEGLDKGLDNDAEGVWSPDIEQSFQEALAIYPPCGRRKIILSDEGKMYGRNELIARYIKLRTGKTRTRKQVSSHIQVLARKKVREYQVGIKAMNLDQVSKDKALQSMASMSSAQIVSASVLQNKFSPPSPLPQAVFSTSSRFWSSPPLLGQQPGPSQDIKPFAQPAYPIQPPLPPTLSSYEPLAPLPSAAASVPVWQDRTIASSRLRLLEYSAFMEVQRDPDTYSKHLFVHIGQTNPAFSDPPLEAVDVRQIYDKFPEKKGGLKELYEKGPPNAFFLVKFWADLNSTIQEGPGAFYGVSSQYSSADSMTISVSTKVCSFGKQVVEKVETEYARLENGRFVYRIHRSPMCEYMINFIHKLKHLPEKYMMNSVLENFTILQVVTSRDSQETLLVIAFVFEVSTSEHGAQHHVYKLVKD
Another experiment deals with TEAD2 (Homo sapiens (Human), UniProt Q15562).
Chain of TEAD2 (Q15562 whole entry, species assumed): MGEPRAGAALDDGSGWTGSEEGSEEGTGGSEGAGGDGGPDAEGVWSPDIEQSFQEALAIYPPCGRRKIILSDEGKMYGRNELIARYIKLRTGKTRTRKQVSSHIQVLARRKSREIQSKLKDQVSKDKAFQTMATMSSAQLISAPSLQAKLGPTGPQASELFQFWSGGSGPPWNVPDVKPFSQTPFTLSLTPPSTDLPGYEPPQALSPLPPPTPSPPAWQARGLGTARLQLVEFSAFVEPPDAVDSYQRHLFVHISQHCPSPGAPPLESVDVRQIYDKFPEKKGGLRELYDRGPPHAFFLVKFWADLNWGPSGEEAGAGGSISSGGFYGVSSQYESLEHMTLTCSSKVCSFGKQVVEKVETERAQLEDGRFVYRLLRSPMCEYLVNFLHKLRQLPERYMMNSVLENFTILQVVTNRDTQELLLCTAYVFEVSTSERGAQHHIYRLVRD
The target of a further experiment is TEAD1 (Homo sapiens (Human), UniProt P28347). Kind of experiment: TR-FRET lipid pocket probe competition assay (Lipid HTRF), TEAD1.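 Also: His-tagged TEAD1 with biotinylated probe, detected via Europium anti-His and XL665 streptavidin, probe displacement lowers TR-FRET signal, IC50 from four-parameter nonlinear fit.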 The conditions noted are these: 4 hours pre-incubation; read-out: Lipid HTRF TEAD1 IC50. In kind it is binding.
Chain of TEAD1 (P28347 whole entry, species assumed): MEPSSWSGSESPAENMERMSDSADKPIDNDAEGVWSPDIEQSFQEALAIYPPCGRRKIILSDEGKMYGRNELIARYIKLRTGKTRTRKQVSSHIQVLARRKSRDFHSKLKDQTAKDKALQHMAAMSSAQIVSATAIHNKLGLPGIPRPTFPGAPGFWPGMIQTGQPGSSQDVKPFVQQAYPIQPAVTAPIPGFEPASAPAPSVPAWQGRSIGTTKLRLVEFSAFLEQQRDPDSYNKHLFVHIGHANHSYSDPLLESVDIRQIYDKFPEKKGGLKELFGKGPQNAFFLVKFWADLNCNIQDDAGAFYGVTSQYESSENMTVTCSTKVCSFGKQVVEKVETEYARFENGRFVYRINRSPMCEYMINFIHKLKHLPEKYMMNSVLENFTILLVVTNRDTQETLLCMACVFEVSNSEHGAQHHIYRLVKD

Each structure is given as a SMILES string. Where a name gives a salt, the structure may show the parent alone.

Experimental for TEAD1: His-tagged TEAD proteins are pre-incubated with TEAD project compounds for 30 minutes or 4 hours at room temperature. Biotinylated lipid pocket probes are then added to the TEAD/Compound mixture and incubated for 60 minutes at room temperature. The lipid pocket probe competes with the test compound for the TEAD lipid pocket until equilibrium is reached. After 60 minutes, Europium labelled anti-His (Perkin Elmer #AD0110) and XL665 labelled streptavidin (CIS Bio 610SAXAC) are added to the TEAD/test compound/lipid pocket mixture and incubated for 30 minutes or 4 hours. […] If a TEAD lipid pocket binder such as binds and displaces the lipid pocket probe, the disruption of the TEAD:probe interaction results in a decrease in TR-FRET signal. The potency of compounds as TEAD lipid pocket binders is determined by IC50 value generated using a non-linear 4 parameter curve fit.

A word on the IC50: it is the point on the concentration scale where inhibition reaches its midpoint. `C=CC(=O)NCc1nn(-c2ccc(S(F)(F)(F)(F)F)cc2)c2cccc([C@@H](O)CO)c12` (single isomer, unassigned) [Compound 10, N-((4-(1,2-dihydroxyethyl)-1-(4-(pentafluoro-λ^6-sulfanyl)phenyl)-1H-indazol-3-yl)methyl)acrylamide]: the IC50 at TEAD4 turned out to be 49 nM; at TEAD3, 560 nM; on TEAD2, 180 nM; at TEAD1 it was 100 nM.
On the same counts, the results for `C=CC(=O)NCc1nn(-c2ccc(S(F)(F)(F)(F)F)cc2)c2cccc([C@H](O)CO)c12` (single isomer, unassigned) [Compound 11, N-((4-(1,2-dihydroxyethyl)-1-(4-(pentafluoro-λ^6-sulfanyl)phenyl)-1H-indazol-3-yl)methyl)acrylamide] are 17 nM, 1300 nM, 86 nM and 23 nM.
On the same counts, the results for `C=CC(=O)NCc1nn(-c2ccc(OC(F)(F)F)cc2)c2nccc([C@@H](O)CO)c12` (stereo in doubt) [Compound 16, N-((4-(1,2-dihydroxyethyl)-1-(4-(trifluoromethoxy)phenyl)-1H-pyrazolo[3,4-b]pyridin-3-yl)methyl)acrylamide] are 61 nM, 680 nM, 120 nM and 230 nM.
The molecule `C=CC(=O)NCc1nn(-c2ccc(OC(F)(F)F)cc2)c2nccc(N3CC([C@@H](C)O)C3)c12` (stereo in doubt) [Compound 123, N-((4-(3-(1-hydroxyethyl)azetidin-1-yl)-1-(4-(trifluoromethoxy)phenyl)-1H-pyrazolo[3,4-b]pyridin-3-yl)methyl)acrylamide] gave a half-maximal inhibitory concentration (IC50) at TEAD2 of 180 nM.
The molecule `C=CC(=O)NCc1nn(-c2ccc(OC(F)(F)F)cc2)c2nccc(N3CC([C@H](C)O)C3)c12` (stereo in doubt) [Compound 138, N-((4-(3-(1-hydroxyethyl)azetidin-1-yl)-1-(4-(trifluoromethoxy)phenyl)-1H-pyrazolo[3,4-b]pyridin-3-yl)methyl)acrylamide] came in with a 50% inhibitory concentration (IC50) against TEAD2 of 290 nM.
In the case of `C=C(C)C(=O)N1CC(c2nn(-c3ccc(OC(F)(F)F)cc3)c3nccc(CO)c23)C1` [Compound 22, 1-(3-(4-(Hydroxymethyl)-1-(4-(trifluoromethoxy)phenyl)-1H-pyrazolo[3,4-b]pyridin-3-yl)azetidin-1-yl)-2-methylprop-2-en-1-one], the concentration for half-maximal inhibition (IC50) at TEAD3 was 300 nM; at TEAD2, 250 nM; on TEAD1, 33 nM.
`C/C=C/C(=O)NCc1nn(-c2ccc(OC(F)(F)F)cc2)c2nccc(CO)c12` [Compound 61, (E)-N-((4-(Hydroxymethyl)-1-(4-(trifluoromethoxy)phenyl)-1H-pyrazolo[3,4-b]pyridin-3-yl)methyl)but-2-enamide]: the IC50 at TEAD3 was 50000 nM; on TEAD2 it was 2300 nM.
As for `O=C(C1=CCC1)N1CC(c2nn(-c3ccc(OC(F)(F)F)cc3)c3nccc([C@H](O)CO)c23)C1` [Compound 72, (S)-Cyclobut-1-en-1-yl(3-(4-(1,2-dihydroxyethyl)-1-(4-(trifluoromethoxy)phenyl)-1H-pyrazolo[3,4-b]pyridin-3-yl)azetidin-1-yl)methanone], the IC50 was 19 nM on TEAD3 and 7.5 nM on TEAD2.
As to `C=CC(=O)NCc1nn(-c2ccc(OC(F)(F)F)cc2)c2nccc(N(C)[C@H]3C[C@H](O)C3)c12` [Compound 90, N-((4-((3-hydroxycyclobutyl)(methyl)amino)-1-(4-(trifluoromethoxy)phenyl)-1H-pyrazolo[3,4-b]pyridin-3-yl)methyl)acrylamide], the IC50 is 9.9 nM on TEAD4 and 3700 nM on TEAD3.
Consider `O=C(/C=C/CO)N1CC(c2nn(-c3ccc(OC(F)(F)F)cc3)c3nccc(CO)c23)C1` [Compound 94, (E)-4-Hydroxy-1-(3-(4-(hydroxymethyl)-1-(4-(trifluoromethoxy)phenyl)-1H-pyrazolo[3,4-b]pyridin-3-yl)azetidin-1-yl)but-2-en-1-one], for which the IC50 against TEAD2 stood at 29 nM; on TEAD1, 15 nM.
For the molecule `O=C(/C=C/CO)N1CC(c2nn(-c3ccc(OC(F)(F)F)cc3)c3nccc([C@@H](O)CO)c23)C1` [Compound 95, (R,E)-1-(3-(4-(1,2-dihydroxyethyl)-1-(4-(trifluoromethoxy)phenyl)-1H-pyrazolo[3,4-b]pyridin-3-yl)azetidin-1-yl)-4-hydroxybut-2-en-1-one], the IC50 on TEAD3 was 92 nM; on TEAD2, 27 nM.
In the case of `CC#CC(=O)NCc1nn(-c2ccc(OC(F)(F)F)cc2)c2nccc(CO)c12` [Compound 98, N-((4-(Hydroxymethyl)-1-(4-(trifluoromethoxy)phenyl)-1H-pyrazolo[3,4-b]pyridin-3-yl)methyl)but-2-ynamide], the figures for the half-inhibitory concentration (IC50) at TEAD3, against TEAD2 and on TEAD1 were 460 nM, 75 nM and 32 nM, respectively.
For the molecule `O=C(/C=C/CO)N1CC(c2nn(-c3ccc(OC(F)(F)F)cc3)c3nccc([C@H](O)CO)c23)C1` [Compound 108, (S,E)-1-(3-(4-(1,2-Dihydroxyethyl)-1-(4-(trifluoromethoxy)phenyl)-1H-pyrazolo[3,4-b]pyridin-3-yl)azetidin-1-yl)-4-hydroxybut-2-en-1-one], the IC50 was determined as 140 nM at TEAD3 and 120 nM at TEAD2.
As to `O=C(C1=CCC1)N1CC(c2nn(-c3ccc(OC(F)(F)F)cc3)c3nccc([C@@H](O)CO)c23)C1` [Compound 115, (R)-cyclobut-1-en-1-yl(3-(4-(1,2-dihydroxyethyl)-1-(4-(trifluoromethoxy)phenyl)-1H-pyrazolo[3,4-b]pyridin-3-yl)azetidin-1-yl)methanone], the IC50 at TEAD3 was 11 nM; against TEAD2 it was 6 nM.
Take `C=CC(=O)NCc1nn(-c2ccc(OC(F)(F)F)cc2)c2nccc(N(C)[C@H]3C[C@@H](O)C3)c12` [Compound 117, N-((4-((3-hydroxycyclobutyl)(methyl)amino)-1-(4-(trifluoromethoxy)phenyl)-1H-pyrazolo[3,4-b]pyridin-3-yl)methyl)acrylamide]: the figures for the half-maximal inhibitory concentration (IC50) at TEAD4 and on TEAD3 were 33 nM and 16000 nM, respectively.
`O=C(/C=C/CF)NCc1nn(-c2ccc(OC(F)(F)F)cc2)c2nccc(CO)c12` [Compound 121, (E)-4-Fluoro-N-((4-(hydroxymethyl)-1-(4-(trifluoromethoxy)phenyl)-1H-pyrazolo[3,4-b]pyridin-3-yl)methyl)but-2-enamide]: the IC50 came out at 350 nM on TEAD3, 68 nM against TEAD2 and 21 nM on TEAD1.
Take `C=CC(=O)NCc1nn(-c2ccc(OC(F)(F)F)cc2)c2nccc([C@H](O)COC(=O)CN)c12` [Compound 145, (S)-2-(3-(Acrylamidomethyl)-1-(4-(trifluoromethoxy)phenyl)-1H-pyrazolo[3,4-b]pyridin-4-yl)-2-hydroxyethyl 2-aminoacetate formate]: the concentration for half-maximal inhibition (IC50) at TEAD4 amounted to 49 nM; against TEAD2, 71 nM; on TEAD1 it was 140 nM.
With `C=CC(=O)NCc1nn(-c2ccc(OC(F)(F)F)cc2)c2nccc([C@H](O)COC(C)=O)c12` [Compound 146, (S)-2-(3-(Acrylamidomethyl)-1-(4-(trifluoromethoxy)phenyl)-1H-pyrazolo[3,4-b]pyridin-4-yl)-2-hydroxyethyl acetate], the values for the IC50 on TEAD4, at TEAD2 and at TEAD1 were 28 nM, 66 nM and 40 nM, respectively.
Take `C=CC(=O)NCc1nn(-c2ccc(OC(F)(F)F)cc2)c2nccc([C@H](O)COP(=O)(O)O)c12` [Compound 147, (S)-2-(3-(Acrylamidomethyl)-1-(4-(trifluoromethoxy)phenyl)-1H-pyrazolo[3,4-b]pyridin-4-yl)-2-hydroxyethyl dihydrogen phosphate]: on TEAD4, the IC50 was found to be 36000 nM.
As to `O=C(NCc1nn(-c2ccc(OC(F)(F)F)cc2)c2nccc(CO)c12)C1=CCOC1` [Compound 149, N-((4-(Hydroxymethyl)-1-(4-(trifluoromethoxy)phenyl)-1H-pyrazolo[3,4-b]pyridin-3-yl)methyl)-2,5-dihydrofuran-3-carboxamide], the half-inhibitory concentration (IC50) at TEAD1 stood at 910 nM.
In the case of `O=C(N1CC(c2nn(-c3ccc(OC(F)(F)F)cc3)c3nccc(CO)c23)C1)C12CC1C2` (stereo not drawn) [Compound 153, Bicyclo[1.1.0]butan-1-yl(3-(4-(hydroxymethyl)-1-(4-(trifluoromethoxy)phenyl)-1H-pyrazolo[3,4-b]pyridin-3-yl)azetidin-1-yl)methanone], the IC50 on TEAD3 was found to be 50000 nM; against TEAD2, 290 nM; on TEAD1, 580 nM.
On to `O=C(C1=CCC1)N1CC(c2nn(-c3ccc(OC(F)(F)F)cc3)c3nccc([C@@H](O)CO)c23)C1` [Compound 157, (R)-Cyclobut-1-en-1-yl(3-(4-(1,2-dihydroxyethyl)-1-(4-(trifluoromethoxy)phenyl)-1H-pyrazolo[3,4-b]pyridin-3-yl)azetidin-1-yl)methanone], for which the IC50 at TEAD3 was determined as 17 nM; against TEAD2, 5.7 nM.
`C/C=C/S(=O)(=O)N1CC(c2nn(-c3ccc(OC(F)(F)F)cc3)c3nccc([C@H](O)CO)c23)C1` [Compound 161, (S,E)-1-(3-(1-(Prop-1-en-1-ylsulfonyl)azetidin-3-yl)-1-(4-(trifluoromethoxy)phenyl)-1H-pyrazolo[3,4-b]pyridin-4-yl)ethane-1,2-diol] yielded an IC50 at TEAD2 of 3.4 nM.
Turning to `C/C=C/S(=O)(=O)N1CC(c2nn(-c3ccc(OC(F)(F)F)cc3)c3nccc([C@@H](O)CO)c23)C1` [Compound 162, (R,E)-1-(3-(1-(prop-1-en-1-ylsulfonyl)azetidin-3-yl)-1-(4-(trifluoromethoxy)phenyl)-1H-pyrazolo[3,4-b]pyridin-4-yl)ethane-1,2-diol], at TEAD2, the IC50 was 10 nM.
